Test results from the supplement of paper PMC11061612.

Key:
Experiment in all cases: combination Emax (second highest fraction inhibited in the dose matrix, 72 h); higher = more inhibition; extreme values may be limits of the assay
LN-405 (Glioblastoma) = system: LN-405 (Glioblastoma)
Procedure, shortened: (§1)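 After 24 hours at 37°C and 5% CO2 in 1536-well plates, cells in DMEM/F12 or RPMI plus 10% FBS received two-drug dose matrices for 72 hours. Viability came from CellTiter-Glo 2.0 luminescence and was scaled as inhibition, anchored at 0 by vehicle wells and at 1 by blank wells. Combination Emax is taken as the second-highest inhibition in the matrix, and Bliss excess as the observed combination effect less EA + EB − EA·EB, with EA and EB the single-agent effects.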

[1] = system: CAL-29 (Bladder Carcinoma)
Procedure, shortened: as §1

[2] = system: OS-RC-2 (Kidney Carcinoma)
Procedure, shortened: as §1

U-2-OS (Osteosarcoma) = system: U-2-OS (Osteosarcoma)
Procedure, shortened: as §1

[3] = system: A549 (Lung Adenocarcinoma)
Procedure, shortened: as §1

PA-1 (Ovarian Carcinoma) = system: PA-1 (Ovarian Carcinoma)
Procedure, shortened: as §1

[4] = system: COLO-824 (Breast Carcinoma)
Procedure, shortened: as §1

[5] = system: VCaP (Prostate Carcinoma)
Procedure, shortened: as §1

[6] = system: CAPAN-2 (Pancreatic Carcinoma)
Procedure, shortened: as §1

[7] = system: SK-MG-1 (Low Grade Glioma)
Procedure, shortened: as §1

[8] = system: JSC-1 (B-Cell Non-Hodgkin's Lymphoma)
Procedure, shortened: as §1

NY (Osteosarcoma) = system: NY (Osteosarcoma)
Procedure, shortened: as §1

[9] = system: TT (Thyroid Gland Carcinoma)
Procedure, shortened: as §1

[10] = system: NCI-H1581 (Non-Small Cell Lung Carcinoma)
Procedure, shortened: as §1

GI-ME-N (Neuroblastoma) = system: GI-ME-N (Neuroblastoma)
Procedure, shortened: as §1

[11] = system: NCI-H1650 (Lung Adenocarcinoma)
Procedure, shortened: as §1

[12] = system: SISO (Cervical Carcinoma)
Procedure, shortened: as §1

CAS-1 (Glioblastoma) = system: CAS-1 (Glioblastoma)
Procedure, shortened: as §1

[13] = system: ONS-76 (Other Solid Carcinomas)
Procedure, shortened: as §1

[14] = system: CCK-81 (Colorectal Carcinoma)
Procedure, shortened: as §1

SMILES	combination Emax (LN-405 (Glioblastoma))	combination Emax [1]	combination Emax [2]	combination Emax (U-2-OS (Osteosarcoma))	combination Emax [3]	combination Emax (PA-1 (Ovarian Carcinoma))	combination Emax [4]	combination Emax [5]	combination Emax [6]	combination Emax [7]	combination Emax [8]	combination Emax (NY (Osteosarcoma))	combination Emax [9]	combination Emax [10]	combination Emax (GI-ME-N (Neuroblastoma))	combination Emax [11]	combination Emax [12]	combination Emax (CAS-1 (Glioblastoma))	combination Emax [13]	combination Emax [14]
Cc1c2c(nn1C)CSCc1cc(n(C)n1)CSc1cc(c3ccccc3c1)OCCCc1c(C(=O)O)n(C)c3c-2c(Cl)ccc13 [AZD5991] + Cc1cc2ncnn2cc1Nc1ncc2c(n1)n(C1CCOCC1)c(=O)n2C [AZD7648] (first compound max 1 µM, 7x7, partner max 10 µM)	0.37	0.43	0.286	0.261	0.461	0.906	0.364	0.94	0.291	0.374	1	0.579	0.38	1	0.228	0.168	0.191	0.401	0.315	0.933
C[C@@H](c1ccc2nccn2c1)n1nnc2ncc(-c3cnn(C)c3)nc21 [Savolitinib] + CN(CC[C@H](CSC1=CC=CC=C1)NC2=C(C=C(C=C2)S(=O)(=O)NC(=O)C3=CC=C(C=C3)N4CCC(CC4)[C@H](C5=CC=CC=C5C6=CC=C(C=C6)Cl)O)S(=O)(=O)C(F)(F)F)CCO [AZD4320] (first compound max 1 µM, 7x7, partner max 1 µM)	0.455	0.174	0.324	0.385	0.165	0.465	1			0.152	0.117				0.229	0.182	0.0887	0.176		
CC(=O)c1c(C)c2cnc(Nc3ccc(N4CCNCC4)cn3)nc2n(C2CCCC2)c1=O [Palbociclib] + CN(CC[C@H](CSC1=CC=CC=C1)NC2=C(C=C(C=C2)S(=O)(=O)NC(=O)C3=CC=C(C=C3)N4CCC(CC4)[C@H](C5=CC=CC=C5C6=CC=C(C=C6)Cl)O)S(=O)(=O)C(F)(F)F)CCO [AZD4320] (first compound max 10 µM, 7x7, partner max 1 µM)	0.69	0.172	0.365	0.355	0.723	0.872	1			0.563	0.59				0.211	0.184	0.126	0.405		
COc1nnc2ccc(N3CCC(c4ccc(OCCN5CCN(C)C(=O)[C@H]5C)cc4)CC3)nn12 [AZD5153] + CN(CC[C@H](CSC1=CC=CC=C1)NC2=C(C=C(C=C2)S(=O)(=O)NC(=O)C3=CC=C(C=C3)N4CCC(CC4)[C@H](C5=CC=CC=C5C6=CC=C(C=C6)Cl)O)S(=O)(=O)C(F)(F)F)CCO [AZD4320] (first compound max 1 µM, 7x7, partner max 1 µM)	0.723	0.401	0.292	0.319	0.735	0.9	1			0.566	0.71				0.246	0.419	0.419	0.587		
CN(CCO)CC[C@H](CSc1ccccc1)Nc1ccc(S(=O)(=O)NC(=O)c2ccc(N3CCC([C@@H](O)c4ccccc4-c4ccc(Cl)cc4)CC3)cc2)cc1S(=O)(=O)C(F)(F)F [AZD4320] + CN(C)CCCOc1ccc(-c2ccc3ncc4c(c3c2)n(C2CCOCC2)c(=O)n4C)cn1 [AZD0156] (first compound max 1 µM, 7x7, partner max 1 µM)	0.275	0.104	0.209	0.259	0.175	0.497	1	0.19	0.634	0.274	0.116	0.0862	0.269	0.19	0.156	0.0865	0.0433	0.229	0.178	
CCc1c2c(nc3ccc(O)cc13)-c1cc3c(c(=O)n1C2)COC(=O)[C@]3(O)CC [SN-38] + O=C(c1cc(Cc2n[nH]c(=O)c3ccccc23)ccc1F)N1CCN(C(=O)C2CC2)CC1 [Olaparib] (first compound max 0.3 µM, 7x7, partner max 10 µM)	0.413			0.205	0.817	0.848		0.459	0.137	0.821	0.973	0.91	0.892	0.722	0.494	0.575	0.932	0.609	0.829	0.587
C[C@@H]1COCCN1c1cc(C2([S@](C)(=N)=O)CC2)nc(-c2ccnc3[nH]ccc23)n1 [AZD6738] + O=C(c1cc(Cc2n[nH]c(=O)c3ccccc23)ccc1F)N1CCN(C(=O)C2CC2)CC1 [Olaparib] (first compound max 10 µM, 7x7, partner max 10 µM)	0.391	0.71	0.435	0.723	0.809	0.768	0.595	0.374	0.309	0.552	0.822	0.607	0.419	0.528	0.486	0.349	0.595	0.48	0.894	
